Calls of active or inactive are those of the source. No cut-off for these calls is given here.
Legend:
NCI-H1299 [1] = test: Viability of H1299 (p53 null) cells at 4 mM by MTT assay; format: functional; conditions: Homo sapiens
NCI-H1299 [2] = test: Viability of H1299 (p53 null) cells in presence of 4 Gy at 4 mM by MTT assay; format: functional; conditions: Homo sapiens

Structure (SMILES)	Activity (NCI-H1299 [1])	GI50 (NCI-H1299 [1])	GI50 (NCI-H1299 [2])
O=C1CN2CCC1CC2	inactive	–	–
CC(=O)OCC1(COC(C)=O)C(=O)C2CCN1CC2	Active	–	–
O=C1C2CCN(CC2)C12COC(c1ccccc1)OC2 (stereo not drawn)	–	17.3 µM	4.49 µM
CC1(C)OCC2(CO1)C(=O)C1CCN2CC1	–	19.2 µM	4.74 µM
O=C1C2CCN(CC2)C1(CO)CO	Active	–	–
OCC1(CO)C(O)C2CCN1CC2 (stereo not drawn)	inactive	–	–
